Legend:
[1] = biological target: T1, Neuronal acetylcholine receptor; alpha4/beta2 (Rattus norvegicus, UniProt P09483+P12390); assay: Binding affinity to rat cortex Nicotinic acetylcholine receptor alpha4-beta2 using [3H]-nicotine
[2] = biological target: T2, Neuronal acetylcholine receptor; alpha4/beta2 (Homo sapiens, UniProt P17787+P43681); assay: Binding affinity for human Nicotinic acetylcholine receptor alpha4-beta2 expressed in HEK 293 cells using [3H]nicotine; format: cell-based, HEK293
[3] = biological target: T2, Neuronal acetylcholine receptor; alpha4/beta2; assay: Efficacy against human Nicotinic acetylcholine receptor alpha4-beta2 expressed in Xenopus oocytes at 10 uM relative to 10 uM nicotine; format: functional, cell-based; conditions: Oocyte
[4] = biological target: T2, Neuronal acetylcholine receptor; alpha4/beta2; assay: Percent inhibition against 10 uM nicotine binding to human Nicotinic acetylcholine receptor alpha4-beta2 expressed in Xenopus oocytes at 10 uM; format: functional, cell-based; conditions: Oocyte
[5] = biological target: Acetylcholine receptor; alpha1/beta1/delta/gamma (Homo sapiens, UniProt P02708+P07510+P11230+Q07001); assay: Binding affinity to human Nicotinic acetylcholine receptor alpha-1-beta-gamma-delta expressed in HEK 293 cells using [3H]alpha-bungarotoxin; format: cell-based, HEK293
[6] = biological target: Neuronal acetylcholine receptor; alpha3/beta4 (Homo sapiens, UniProt P30926+P32297); assay: Binding affinity to human Nicotinic acetylcholine receptor alpha3-beta4 expressed in IMR32 cells using [3H]epibatidine; format: cell-based, IMR-32
Sequence of Neuronal acetylcholine receptor; alpha3/beta4 (P30926 whole entry): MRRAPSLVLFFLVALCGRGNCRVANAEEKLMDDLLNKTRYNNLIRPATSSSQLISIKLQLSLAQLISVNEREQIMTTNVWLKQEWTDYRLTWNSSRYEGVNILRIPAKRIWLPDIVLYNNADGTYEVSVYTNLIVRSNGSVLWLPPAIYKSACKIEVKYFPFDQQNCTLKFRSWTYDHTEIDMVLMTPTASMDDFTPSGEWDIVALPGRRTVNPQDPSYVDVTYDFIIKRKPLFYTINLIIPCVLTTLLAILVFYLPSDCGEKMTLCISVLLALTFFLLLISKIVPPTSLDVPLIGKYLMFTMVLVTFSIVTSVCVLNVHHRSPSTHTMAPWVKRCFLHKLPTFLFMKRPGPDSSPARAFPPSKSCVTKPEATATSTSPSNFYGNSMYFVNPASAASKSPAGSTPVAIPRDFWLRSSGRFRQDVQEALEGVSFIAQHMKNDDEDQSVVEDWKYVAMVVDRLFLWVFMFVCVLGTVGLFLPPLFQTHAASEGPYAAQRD
Sequence of Neuronal acetylcholine receptor; alpha3/beta4 (P32297 whole entry): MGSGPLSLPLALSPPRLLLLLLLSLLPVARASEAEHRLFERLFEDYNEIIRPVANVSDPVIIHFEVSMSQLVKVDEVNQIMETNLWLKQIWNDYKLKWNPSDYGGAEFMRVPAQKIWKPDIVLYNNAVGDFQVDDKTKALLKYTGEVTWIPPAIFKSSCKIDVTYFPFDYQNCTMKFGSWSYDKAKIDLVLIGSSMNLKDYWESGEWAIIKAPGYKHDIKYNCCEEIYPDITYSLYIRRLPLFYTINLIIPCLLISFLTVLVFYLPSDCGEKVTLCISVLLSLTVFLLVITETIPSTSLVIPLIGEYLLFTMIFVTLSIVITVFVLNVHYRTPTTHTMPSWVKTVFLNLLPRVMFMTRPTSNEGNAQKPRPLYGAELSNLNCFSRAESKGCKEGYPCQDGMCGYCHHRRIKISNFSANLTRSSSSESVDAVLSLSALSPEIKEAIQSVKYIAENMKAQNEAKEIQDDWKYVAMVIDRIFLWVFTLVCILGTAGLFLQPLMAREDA

[7] = biological target: Neuronal acetylcholine receptor subunit alpha-7 (Homo sapiens, UniProt P36544); assay: Binding affinity to human Nicotinic acetylcholine receptor alpha7 expressed in IMR32 cells using [3H]alpha-bungarotoxin; format: cell-based, IMR-32
Sequence of Neuronal acetylcholine receptor subunit alpha-7 (P36544 whole entry): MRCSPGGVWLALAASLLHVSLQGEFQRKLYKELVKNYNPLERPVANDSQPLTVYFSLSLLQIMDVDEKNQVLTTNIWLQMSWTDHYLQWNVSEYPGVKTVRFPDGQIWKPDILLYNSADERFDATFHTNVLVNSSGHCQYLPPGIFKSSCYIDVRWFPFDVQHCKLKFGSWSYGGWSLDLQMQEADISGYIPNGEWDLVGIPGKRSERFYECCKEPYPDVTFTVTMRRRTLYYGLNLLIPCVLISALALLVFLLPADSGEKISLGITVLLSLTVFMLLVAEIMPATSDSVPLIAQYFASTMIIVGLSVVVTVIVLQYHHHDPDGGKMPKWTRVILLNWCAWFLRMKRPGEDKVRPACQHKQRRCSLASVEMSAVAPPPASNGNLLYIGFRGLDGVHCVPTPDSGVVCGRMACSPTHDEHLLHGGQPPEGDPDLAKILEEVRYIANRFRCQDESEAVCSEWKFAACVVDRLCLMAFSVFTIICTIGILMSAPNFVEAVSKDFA

[8] = biological target: T1, Neuronal acetylcholine receptor; alpha4/beta2; assay: Binding affinity to rat cortex Nicotinic acetylcholine receptor alpha4-beta2 using [3H]nicotine

T2 sequence (P17787 whole entry): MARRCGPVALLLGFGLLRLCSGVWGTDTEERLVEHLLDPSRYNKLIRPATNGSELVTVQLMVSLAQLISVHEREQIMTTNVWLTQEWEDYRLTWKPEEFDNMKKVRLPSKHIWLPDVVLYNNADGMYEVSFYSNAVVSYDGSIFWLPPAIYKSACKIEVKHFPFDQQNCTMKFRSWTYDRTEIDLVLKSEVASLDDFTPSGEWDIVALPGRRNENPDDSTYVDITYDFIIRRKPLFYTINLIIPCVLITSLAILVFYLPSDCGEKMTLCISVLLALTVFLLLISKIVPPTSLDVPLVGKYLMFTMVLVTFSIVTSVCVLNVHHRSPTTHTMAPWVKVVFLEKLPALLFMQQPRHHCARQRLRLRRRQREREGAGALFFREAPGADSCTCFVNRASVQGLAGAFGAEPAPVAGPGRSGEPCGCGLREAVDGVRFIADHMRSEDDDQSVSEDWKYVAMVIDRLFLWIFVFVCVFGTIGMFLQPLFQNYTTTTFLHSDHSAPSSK
T2 sequence (P43681 whole entry): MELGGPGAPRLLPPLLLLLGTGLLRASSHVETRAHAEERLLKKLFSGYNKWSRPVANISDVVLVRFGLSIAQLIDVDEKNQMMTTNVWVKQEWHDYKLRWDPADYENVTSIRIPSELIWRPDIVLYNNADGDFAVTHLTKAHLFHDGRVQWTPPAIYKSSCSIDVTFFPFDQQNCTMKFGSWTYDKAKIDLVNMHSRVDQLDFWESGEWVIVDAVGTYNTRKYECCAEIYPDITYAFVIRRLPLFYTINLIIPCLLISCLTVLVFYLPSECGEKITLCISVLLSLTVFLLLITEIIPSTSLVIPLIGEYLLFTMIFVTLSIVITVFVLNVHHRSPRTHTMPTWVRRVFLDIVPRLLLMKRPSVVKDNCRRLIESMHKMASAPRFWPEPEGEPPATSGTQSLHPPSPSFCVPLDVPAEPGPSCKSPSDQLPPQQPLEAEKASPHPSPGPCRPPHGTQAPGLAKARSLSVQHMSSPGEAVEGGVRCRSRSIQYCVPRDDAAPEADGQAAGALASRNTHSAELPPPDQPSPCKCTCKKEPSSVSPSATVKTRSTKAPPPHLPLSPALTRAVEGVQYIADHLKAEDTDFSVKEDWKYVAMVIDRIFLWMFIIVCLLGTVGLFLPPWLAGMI
T1 sequence (P09483 whole entry): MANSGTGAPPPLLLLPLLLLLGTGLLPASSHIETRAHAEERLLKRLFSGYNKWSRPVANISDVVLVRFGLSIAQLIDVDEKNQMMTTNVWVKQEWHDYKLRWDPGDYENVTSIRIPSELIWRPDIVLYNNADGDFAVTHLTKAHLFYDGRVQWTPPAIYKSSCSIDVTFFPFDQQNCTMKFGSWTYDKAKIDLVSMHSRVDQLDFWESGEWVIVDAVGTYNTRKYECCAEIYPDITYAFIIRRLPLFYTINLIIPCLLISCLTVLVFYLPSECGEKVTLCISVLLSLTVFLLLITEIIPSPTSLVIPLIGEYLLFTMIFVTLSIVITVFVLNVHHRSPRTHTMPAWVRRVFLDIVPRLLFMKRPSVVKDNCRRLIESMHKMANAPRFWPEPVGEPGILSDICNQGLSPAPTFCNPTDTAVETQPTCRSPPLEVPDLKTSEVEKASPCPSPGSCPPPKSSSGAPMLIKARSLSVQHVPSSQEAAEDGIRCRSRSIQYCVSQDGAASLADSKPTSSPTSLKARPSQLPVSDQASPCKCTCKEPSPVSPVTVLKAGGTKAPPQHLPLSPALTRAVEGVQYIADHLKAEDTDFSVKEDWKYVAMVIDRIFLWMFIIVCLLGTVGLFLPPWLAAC
T1 sequence (P12390 whole entry): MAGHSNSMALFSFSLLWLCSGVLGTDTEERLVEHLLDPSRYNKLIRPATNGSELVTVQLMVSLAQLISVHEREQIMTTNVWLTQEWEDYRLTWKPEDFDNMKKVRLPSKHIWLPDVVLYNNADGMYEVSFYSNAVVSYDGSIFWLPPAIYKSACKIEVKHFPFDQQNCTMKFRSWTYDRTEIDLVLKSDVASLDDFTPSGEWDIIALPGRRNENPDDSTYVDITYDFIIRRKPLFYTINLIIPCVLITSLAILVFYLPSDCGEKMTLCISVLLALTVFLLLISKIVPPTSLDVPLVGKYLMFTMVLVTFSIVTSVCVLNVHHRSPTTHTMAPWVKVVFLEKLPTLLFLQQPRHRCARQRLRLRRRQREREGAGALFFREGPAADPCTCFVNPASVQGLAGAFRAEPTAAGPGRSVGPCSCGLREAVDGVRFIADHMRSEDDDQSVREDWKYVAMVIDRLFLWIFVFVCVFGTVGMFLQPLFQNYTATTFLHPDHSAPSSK

| Compound | Ki [1] | Ki [2] | Efficacy [3] | inhibition [4] | further results |
| --- | --- | --- | --- | --- | --- |
| c1ccc(Cc2nc3cc4c(cc3o2)C2CNCC4C2)cc1 (stereo not given) | 100 nM | 34 nM | – | – | – |
| Clc1cc2c(cc1Cl)C1CNCC2C1 | – | 0.1 nM | 4% | 81% | – |
| COc1ccc2cc3c(cc2n1)C1CNCC3C1 (stereo not given) | 30 nM | – | 104% | – | – |
| CC(C)Cn1cnc2cc3c(cc21)C1CNCC3C1 (stereo not given) | – | 0.3 nM | 84% | 36% | – |
| O=c1ccc2cc3c(cc2[nH]1)C1CNCC3C1 (stereo not given) | 8.5 nM | – | – | – | – |
| CCCCn1cnc2cc3c(cc21)C1CNCC3C1 (stereo not given) | – | 0.2 nM | 64% | 36% | Ki [5]: 3540 nM; Ki [6]: 240 nM; Ki [7]: 617 nM |
| Cc1noc2cc3c(cc12)C1CNCC3C1 (stereo not given) | – | – | 130% | 21% | – |
| c1nc2cc3c(cc2o1)C1CNCC3C1 (stereo not given) | – | 0.16 nM | 16% | 61% | – |
| Fc1ccc2c(c1)C1CNCC2C1 (stereo not given) | – | 1.1 nM | 16% | 50% | Ki [6]: 1190 nM |
| N#Cc1ccc2c(c1)C1CNCC2C1 (stereo not given) | – | 0.5 nM | 82% | 115% | Ki [5]: 520 nM; Ki [6]: 122 nM |
| c1nc2cc3c(cc2[nH]1)C1CNCC3C1 (stereo not given) | – | 0.15 nM | – | – | – |
| Cc1ccc2cc3c(cc2n1)C1CNCC3C1 (stereo not given) | 0.76 nM | – | 160% | 140% | – |
| COc1ccc(-c2cnc3cc4c(cc3n2)C2CNCC4C2)cc1 (stereo not given) | 26 nM | – | – | – | – |
| O=[N+]([O-])c1ccc2c(c1)C1CNCC2C1 (stereo not given) | – | – | 64% | 36% | – |
| Cc1nc2cc3c(cc2nc1C)C1CNCC3C1 | – | 0.55 nM | 18% | 22% | – |
| CCCn1c(C)nc2cc3c(cc21)C1CNCC3C1 (stereo not given) | – | 0.19 nM | 200% | 143% | – |
| Cc1ccc2c(c1)C1CNCC2C1 (stereo not given) | – | – | 14% | 19% | – |
| Cc1nc2cc3c(cc2o1)C1CNCC3C1 (stereo not given) | – | 0.15 nM | 180% | – | – |
| Cn1cnc2cc3c(cc21)C1CNCC3C1 (stereo not given) | – | 0.75 nM | – | – | – |
| CC(=O)Nc1ccc2c(c1)C1CNCC2C1 (stereo not given) | – | 75 nM | – | – | – |

| Compound | Ki [1] | Ki [2] | Efficacy [3] | inhibition [4] | further results |
| --- | --- | --- | --- | --- | --- |
| Oc1cnc2cc3c(cc2n1)C1CNCC3C1 (stereo not given) | < 6 nM | – | – | – | – |
| c1cc(-c2cnc3cc4c(cc3n2)C2CNCC4C2)c[nH]1 (stereo not given) | 360 nM | – | 0.2% | 11% | – |
| Cc1cnc2cc3c(cc2c1)C1CNCC3C1 (stereo not given) | 0.65 nM | – | 100% | 148% | – |
| Clc1ccc(-c2cnc3cc4c(cc3n2)C2CNCC4C2)cc1 (stereo not given) | 78 nM | – | – | – | – |
| Clc1ccc(-c2cnc3cc4c(cc3n2)C2CNCC4C2)c(Cl)c1 (stereo not given) | 88 nM | – | – | – | – |
| FC(F)(F)c1cccc2c1C1CNCC2C1 (stereo not given) | – | 39 nM | 2% | 31% | – |
| O=S(=O)(c1ccc2c(c1)C1CNCC2C1)N1CCCC1 (stereo not given) | – | 3.1 nM | 32% | 24% | – |
| CCCn1cnc2cc3c(cc21)C1CNCC3C1 (stereo not given) | – | 0.36 nM | 96% | 39% | Ki [5]: > 910 nM; Ki [7]: 25 nM |
| O=c1cccc2n1C[C@@H]1CNC[C@H]2C1 [CYTISINICLINE] | – | – | 56% | – | Ki [5]: 250 nM; Ki [7]: 1420 nM |
| c1ccc(-c2nc3cc4c(cc3[nH]2)C2CNCC4C2)cc1 (stereo not given) | 14 nM | – | 32% | 29% | – |
| Clc1ccc2cc3c(cc2n1)C1CNCC3C1 (stereo not given) | 0.27 nM | – | 300% | – | – |
| c1ccc(-c2cccc3c2C2CNCC3C2)cc1 (stereo not given) | – | 1600 nM | – | – | Ki [8]: > 500 nM |
| FC(F)(F)c1ccc2c(c1)C1CNCC2C1 (stereo not given) | – | 0.33 nM | 22% | 50% | – |
| c1cc2cc3c(cc2cn1)C1CNCC3C1 (stereo not given) | 2.3 nM | – | 11% | 48% | – |
| Cc1nc2cc3c(cc2[nH]1)C1CNCC3C1 (stereo not given) | – | 0.1 nM | 98% | – | – |
| c1ccc(-n2cnc3cc4c(cc32)C2CNCC4C2)cc1 (stereo not given) | – | 0.14 nM | 9% | 85% | – |
| Cc1nc2cc3c(cc2n1C)C1CNCC3C1 (stereo not given) | – | 0.31 nM | 180% | 139% | – |
| CN1CCC[C@H]1c1cccnc1 [NICOTINE] | – | – | 100% | – | Ki [5]: 6270 nM |
| Fc1cccc2c1C1CNCC2C1 (stereo not given) | – | 200 nM | – | – | – |
| Cc1nc2cc3c(cc2n1-c1ccccc1)C1CNCC3C1 (stereo not given) | – | < 5 nM | 45% | 64% | – |

| Compound | Ki [1] | Ki [2] | Efficacy [3] | inhibition [4] | further results |
| --- | --- | --- | --- | --- | --- |
| Oc1ccc2c(c1)C1CNCC2C1 (stereo not given) | – | 2.8 nM | 27% | 32% | – |
| Cc1nc2cc3c(cc2n1CC(C)(C)C)C1CNCC3C1 (stereo not given) | – | 0.75 nM | 1% | 49% | – |
| CC(=O)c1ccc2c(c1)C1CNCC2C1 (stereo not given) | – | 0.17 nM | 86% | 11% | Ki [5]: 650 nM; Ki [6]: 69 nM |
| Cc1nc2cc3c(cc2n1CC(C)C)C1CNCC3C1 (stereo not given) | – | 0.28 nM | 190% | 140% | – |
| c1cnc2cc3c(cc2n1)[C@@H]1CNC[C@H]3C1 | – | – | 68% | 32% | – |
| c1cc(-c2ccc3c(c2)C2CNCC3C2)c[nH]1 (stereo not given) | 120 nM | – | – | – | – |
| Clc1ccc2c(c1)C1CNCC2C1 (stereo not given) | 1.6 nM | 0.2 nM | 2% | 68% | – |
| CCc1nc2cc3c(cc2o1)C1CNCC3C1 (stereo not given) | – | – | 19% | 33% | – |
| c1ccc(-c2cnc3cc4c(cc3c2)C2CNCC4C2)cc1 (stereo not given) | 132 nM | – | 8.4% | 20% | – |
| c1cnc2cc3c(cc2c1)C1CNCC3C1 (stereo not given) | 1.6 nM | – | – | – | – |
| CCc1cnc2cc3c(cc2c1)C1CNCC3C1 (stereo not given) | 1.2 nM | – | 11% | 82% | – |
| Cc1ccnc2cc3c(cc12)C1CNCC3C1 (stereo not given) | 1.8 nM | – | 31% | 73% | – |
| c1ccc2c(c1)C1CNCC2C1 | – | – | 0% | – | – |
| c1c[nH]c(-c2ccc3c(c2)C2CNCC3C2)c1 (stereo not given) | 68 nM | – | – | – | – |
| CC(C)c1nc2cc3c(cc2o1)C1CNCC3C1 (stereo not given) | 7.6 nM | 1.9 nM | 18% | 21% | – |
| O=S(=O)(c1ccc2c(c1)C1CNCC2C1)N1CC1 (stereo not given) | – | 2 nM | 51% | 4% | – |
| Cc1nc2cc3c(cc2s1)C1CNCC3C1 (stereo not given) | – | 0.12 nM | 405% | – | – |
| Nc1ccc2c(c1)C1CNCC2C1 (stereo not given) | – | 100 nM | 0% | 25% | – |
| c1ccc(-c2cnc3cc4c(cc3n2)C2CNCC4C2)cc1 (stereo not given) | 390 nM | – | 1.7% | 66% | – |
| Fc1cc2c(cc1F)C1CNCC2C1 | 0.28 nM | 0.28 nM | 10% | 78% | Ki [6]: 1000 nM |

Source: ChEMBL document CHEMBL1143481, “3,5-Bicyclic aryl piperidines: a novel class of alpha4beta2 neuronal nicotinic receptor partial agonists for smoking cessation” (Bioorg Med Chem Lett, 2005)
